Results as given in patent US20060034992A1, “Flavor and fragrance compounds” (priority 2002, published 2006).
Read-outs that look alike come from different tables or passages of the source.

Assay: Release rate of acetaldehyde from precursor (acid hydrolysis) in phosphate buffer, UV extinction at 280 nm
Format: physicochemical
Conditions: for rate constant k: Precursor + H2O -> Ethanol + Acetaldehyde; for half-life at 2.5 mg/mL: phosphate buffer
Method: The release rate of acetaldehyde from the precursor according to formula II with n=1 is measured and compared to 1,2-di[(1′-ethoxy)ethoxy]propane and acetaldehyde diethyl. The measurements are conducted as described in S. M. Oon and D. G. Kubler, “Hydrolysis of Aldal Acetals”, J. Org. Chem., 1982, 47, 1166-1171. A phosphate buffer solution (2 mL) is placed into a quartz cuvette and 5 mg of the respective acetaldehyde precursor is added. The mixture is mixed well and sealed using Parafilm™. The release of acetaldehyde is monitored in a UV-Photometer measuring the increase of the extinction at 280 nm over time. Depending on reaction speed, all 3 to 10 seconds measurements are conducted. […] by the formula C(t)=C0+Cx×(1−e^−kt), wherein C(t) the absorption corresponding to the concentration of acetaldehyde at time t, C0 absorption corresponding to the concentration of acetaldehyde at time t=0, Cx the total amount of acetaldehyde present in the precursor, k the rate constant and t the reaction time. The rate constants are calculated by a numeric approximation program (TABLE CURVE 2D, ©AISN Software Inc.). The half life time λ is calculated from the rate constant using the equation λ=−ln(0.5)/k.

[1] = pH 3.5, read-out: half-life (acetaldehyde release) (converted)
[2] = pH 3.0, read-out: half-life (acetaldehyde release) (converted)

CCOC(C)OC(C)OCC (stereo not shown) [1-ethoxy-1-(1-ethoxy-ethoxy)-ethane]
release of acetaldehyde (acidic conditions): rapidly releases acetaldehyde
stability (neutral pH conditions): stable
rate constant k (pH 2.8): 0.005966 s⁻¹
rate constant k (pH 3.18): 0.003446 s⁻¹
rate constant k (pH 3.81): 0.00069 s⁻¹
rate constant k (pH 4.14): 0.000382 s⁻¹
half-life at 2.5 mg/mL [1]: 16.1 min
half-life at 2.5 mg/mL (pH 2.8, calculated from rate constant, read-out: half life time λ (converted)): 1.93 min
half-life at 2.5 mg/mL [2]: 5.1 min
half-life at 2.5 mg/mL (pH 3.18, calculated from rate constant, read-out: half life time λ (converted)): 3.35 min
half-life at 2.5 mg/mL (pH 3.81, calculated from rate constant, read-out: half life time λ (converted)): 16.7 min
half-life at 2.5 mg/mL (pH 4.14, calculated from rate constant, read-out: half life time λ (converted)): 30.2 min

CCOC(C)OCC [acetaldehyde diethyl acetal, reference compound]
half-life at 2.5 mg/mL [1]: 41.5 min
half-life at 2.5 mg/mL [2]: 9.65 min

CCOC(C)OCC(C)OC(C)OCC (stereo not shown) [1,2-di[(1′-ethoxy)ethoyx]propane, 1,2-di[(1′-ethoxy)ethoxy]propane, reference compound]
half-life at 2.5 mg/mL [1]: 65.1 min
half-life at 2.5 mg/mL [2]: 10.4 min
